Test [1] deals with T1, FER (Homo sapiens, UniProt P16591). Kind of test: ATP acyl phosphate probe competition, SILAC LC-MS. In kind it is cell-based.
The target in a further test is T2, DGKκ (Homo sapiens, UniProt Q5KSL6).
T2 sequence (Q5KSL6 1-1271): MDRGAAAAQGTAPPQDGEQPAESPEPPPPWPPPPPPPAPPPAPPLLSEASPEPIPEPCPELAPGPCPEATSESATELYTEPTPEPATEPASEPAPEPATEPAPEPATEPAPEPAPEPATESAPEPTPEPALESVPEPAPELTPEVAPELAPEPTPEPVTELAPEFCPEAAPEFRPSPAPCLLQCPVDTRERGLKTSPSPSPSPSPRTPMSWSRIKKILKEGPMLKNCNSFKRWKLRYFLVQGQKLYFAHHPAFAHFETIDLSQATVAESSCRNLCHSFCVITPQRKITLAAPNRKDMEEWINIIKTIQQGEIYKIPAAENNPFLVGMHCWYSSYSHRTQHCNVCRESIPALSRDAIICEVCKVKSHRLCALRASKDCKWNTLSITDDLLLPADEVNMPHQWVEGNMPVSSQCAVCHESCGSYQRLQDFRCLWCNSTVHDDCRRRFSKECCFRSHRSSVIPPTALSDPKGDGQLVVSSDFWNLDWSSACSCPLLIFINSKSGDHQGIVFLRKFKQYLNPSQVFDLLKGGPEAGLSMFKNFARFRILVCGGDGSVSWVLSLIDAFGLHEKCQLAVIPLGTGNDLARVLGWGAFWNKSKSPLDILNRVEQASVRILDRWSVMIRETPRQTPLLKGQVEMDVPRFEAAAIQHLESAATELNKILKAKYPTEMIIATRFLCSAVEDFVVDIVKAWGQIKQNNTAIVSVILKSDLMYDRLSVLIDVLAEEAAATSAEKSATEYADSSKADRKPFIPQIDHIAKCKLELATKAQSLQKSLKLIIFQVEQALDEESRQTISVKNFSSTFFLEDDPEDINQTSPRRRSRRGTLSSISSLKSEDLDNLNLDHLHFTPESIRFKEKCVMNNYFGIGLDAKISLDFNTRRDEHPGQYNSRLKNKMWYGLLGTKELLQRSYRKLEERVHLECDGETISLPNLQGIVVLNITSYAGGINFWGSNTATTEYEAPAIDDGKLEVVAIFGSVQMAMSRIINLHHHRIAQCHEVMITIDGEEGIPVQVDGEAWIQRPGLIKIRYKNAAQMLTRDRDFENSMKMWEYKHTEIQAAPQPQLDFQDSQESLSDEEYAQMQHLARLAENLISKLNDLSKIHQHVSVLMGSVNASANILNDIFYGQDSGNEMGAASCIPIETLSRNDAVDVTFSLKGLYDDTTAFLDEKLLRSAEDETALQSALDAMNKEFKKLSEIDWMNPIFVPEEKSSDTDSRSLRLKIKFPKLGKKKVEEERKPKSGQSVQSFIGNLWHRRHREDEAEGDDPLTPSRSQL
The test can be described thus: free ATP. In kind it is cell-based.

A further test deals with T3, DGKθ (Homo sapiens, UniProt P52824).
T3 sequence (P52824 1-942): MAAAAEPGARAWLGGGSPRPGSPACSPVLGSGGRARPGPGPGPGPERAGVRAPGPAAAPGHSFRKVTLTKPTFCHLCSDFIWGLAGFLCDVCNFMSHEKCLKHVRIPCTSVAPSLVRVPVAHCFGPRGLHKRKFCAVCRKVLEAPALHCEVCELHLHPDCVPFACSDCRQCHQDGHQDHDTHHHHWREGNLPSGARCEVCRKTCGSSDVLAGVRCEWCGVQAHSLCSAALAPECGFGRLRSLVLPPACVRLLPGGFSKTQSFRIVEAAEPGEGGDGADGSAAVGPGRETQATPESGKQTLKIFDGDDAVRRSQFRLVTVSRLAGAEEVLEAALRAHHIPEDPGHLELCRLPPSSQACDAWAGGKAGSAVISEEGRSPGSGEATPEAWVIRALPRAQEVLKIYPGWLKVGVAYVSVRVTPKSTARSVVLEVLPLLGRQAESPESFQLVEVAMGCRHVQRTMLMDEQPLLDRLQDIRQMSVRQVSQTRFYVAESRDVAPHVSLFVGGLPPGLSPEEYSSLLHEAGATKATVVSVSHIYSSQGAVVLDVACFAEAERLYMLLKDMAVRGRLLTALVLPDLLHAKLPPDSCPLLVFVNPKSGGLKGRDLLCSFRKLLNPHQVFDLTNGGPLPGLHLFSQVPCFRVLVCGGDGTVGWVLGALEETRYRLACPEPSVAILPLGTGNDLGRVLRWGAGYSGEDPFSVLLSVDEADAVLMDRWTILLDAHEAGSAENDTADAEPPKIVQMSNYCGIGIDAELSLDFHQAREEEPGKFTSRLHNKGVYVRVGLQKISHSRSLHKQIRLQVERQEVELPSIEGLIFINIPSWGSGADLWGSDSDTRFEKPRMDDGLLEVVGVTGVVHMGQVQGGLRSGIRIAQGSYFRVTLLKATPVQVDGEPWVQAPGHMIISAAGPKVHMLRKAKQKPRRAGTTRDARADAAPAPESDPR
The test can be described thus: free ATP. In kind it is cell-based.

Test [2] has as its target T1, FER. Kind of test: free ATP competition with ATP acyl phosphate probe, SILAC LC-MS. In kind it is cell-based.
Another test concerns the target DGKζ (Homo sapiens, UniProt Q13574). The test can be described thus: free ATP. In kind it is cell-based.
In another test the target is DGKα (Rattus norvegicus, UniProt P51556). The test can be described thus: ADP-Glo DAG phosphorylation assay in lysate. It counts as biochemical. (ADP-Glo turns the ADP formed in a reaction into a luminescent signal.)

Structures are written as SMILES.

T1 sequence (P16591 whole entry): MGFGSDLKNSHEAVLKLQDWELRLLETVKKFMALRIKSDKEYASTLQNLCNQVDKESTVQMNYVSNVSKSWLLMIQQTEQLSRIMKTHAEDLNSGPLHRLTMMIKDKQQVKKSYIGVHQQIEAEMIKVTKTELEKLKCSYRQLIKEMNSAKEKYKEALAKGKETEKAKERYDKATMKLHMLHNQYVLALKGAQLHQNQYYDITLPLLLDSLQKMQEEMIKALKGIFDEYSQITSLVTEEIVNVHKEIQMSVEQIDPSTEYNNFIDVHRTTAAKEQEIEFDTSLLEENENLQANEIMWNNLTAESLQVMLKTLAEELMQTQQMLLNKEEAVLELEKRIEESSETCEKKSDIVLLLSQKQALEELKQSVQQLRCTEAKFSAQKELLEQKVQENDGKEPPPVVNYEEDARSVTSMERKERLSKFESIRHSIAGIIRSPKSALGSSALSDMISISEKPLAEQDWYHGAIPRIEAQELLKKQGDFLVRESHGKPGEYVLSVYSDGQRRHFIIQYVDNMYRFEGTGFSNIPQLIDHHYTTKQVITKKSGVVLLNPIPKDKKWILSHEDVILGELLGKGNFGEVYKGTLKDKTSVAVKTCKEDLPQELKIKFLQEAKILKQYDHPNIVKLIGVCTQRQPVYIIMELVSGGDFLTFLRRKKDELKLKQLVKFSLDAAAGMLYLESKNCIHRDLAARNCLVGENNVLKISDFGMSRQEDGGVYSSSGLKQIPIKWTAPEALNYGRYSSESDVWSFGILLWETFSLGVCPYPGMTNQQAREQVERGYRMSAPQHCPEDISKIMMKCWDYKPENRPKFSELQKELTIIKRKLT
Chain of DGKζ (Q13574 whole entry): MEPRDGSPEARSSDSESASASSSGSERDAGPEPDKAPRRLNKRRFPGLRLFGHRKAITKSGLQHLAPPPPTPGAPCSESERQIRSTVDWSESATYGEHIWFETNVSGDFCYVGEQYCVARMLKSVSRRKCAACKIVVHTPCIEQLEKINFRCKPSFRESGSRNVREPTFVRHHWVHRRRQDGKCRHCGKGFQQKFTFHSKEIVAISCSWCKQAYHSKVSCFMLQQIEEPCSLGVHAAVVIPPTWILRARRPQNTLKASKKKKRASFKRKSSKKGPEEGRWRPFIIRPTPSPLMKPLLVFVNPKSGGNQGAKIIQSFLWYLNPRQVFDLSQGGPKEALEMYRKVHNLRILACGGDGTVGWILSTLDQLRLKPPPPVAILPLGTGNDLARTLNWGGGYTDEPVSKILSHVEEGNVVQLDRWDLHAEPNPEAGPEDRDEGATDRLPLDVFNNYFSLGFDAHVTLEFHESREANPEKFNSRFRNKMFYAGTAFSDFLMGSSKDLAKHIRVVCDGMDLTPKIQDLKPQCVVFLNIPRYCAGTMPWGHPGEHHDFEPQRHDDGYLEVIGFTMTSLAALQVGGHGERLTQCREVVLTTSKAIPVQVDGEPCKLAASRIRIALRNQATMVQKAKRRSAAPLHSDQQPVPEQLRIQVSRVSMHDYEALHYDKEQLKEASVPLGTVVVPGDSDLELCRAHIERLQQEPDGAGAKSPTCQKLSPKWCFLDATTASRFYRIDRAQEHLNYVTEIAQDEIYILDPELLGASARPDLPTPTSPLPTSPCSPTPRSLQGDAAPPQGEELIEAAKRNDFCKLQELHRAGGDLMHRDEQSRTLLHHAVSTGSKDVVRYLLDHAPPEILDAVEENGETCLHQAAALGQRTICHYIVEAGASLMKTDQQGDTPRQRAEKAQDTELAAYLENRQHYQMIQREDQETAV
Chain of DGKα (P51556 whole entry): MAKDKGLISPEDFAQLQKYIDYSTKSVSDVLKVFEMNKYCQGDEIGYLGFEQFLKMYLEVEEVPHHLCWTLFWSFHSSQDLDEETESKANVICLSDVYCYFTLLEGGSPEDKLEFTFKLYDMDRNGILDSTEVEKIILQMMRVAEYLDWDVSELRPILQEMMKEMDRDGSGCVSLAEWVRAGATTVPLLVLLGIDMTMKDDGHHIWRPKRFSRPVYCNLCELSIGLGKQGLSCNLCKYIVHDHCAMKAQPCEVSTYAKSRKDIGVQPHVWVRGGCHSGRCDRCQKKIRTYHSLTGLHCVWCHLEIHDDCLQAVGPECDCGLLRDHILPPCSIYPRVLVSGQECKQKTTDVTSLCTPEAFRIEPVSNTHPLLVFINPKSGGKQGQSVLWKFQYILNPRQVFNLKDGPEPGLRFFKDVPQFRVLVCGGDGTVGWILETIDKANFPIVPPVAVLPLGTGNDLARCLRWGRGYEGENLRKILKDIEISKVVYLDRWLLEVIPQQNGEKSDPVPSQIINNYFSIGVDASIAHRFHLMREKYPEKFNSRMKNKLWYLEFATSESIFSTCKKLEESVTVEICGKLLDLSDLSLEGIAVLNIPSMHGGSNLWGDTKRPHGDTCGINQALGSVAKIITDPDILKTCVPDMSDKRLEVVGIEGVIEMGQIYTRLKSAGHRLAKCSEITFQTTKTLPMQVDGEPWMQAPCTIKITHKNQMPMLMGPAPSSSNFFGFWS

Take `Cc1nc2sccn2c(=O)c1CCN1CCC(=C(c2ccc(F)cc2)c2ccc(F)cc2)CC1` [ritanserin]: the “ATP acyl phosphate probe competition, SILAC LC-MS (100 μM compound, SR = 7.9)” value at FER [1] worked out at 7.9.

`Nc1ncnc2c1ncn2[C@@H]1O[C@H](COP(=O)(O)OP(=O)(O)OP(=O)(O)O)[C@@H](O)[C@H]1O` [ATP]: the “free ATP (1 mM) competition with ATP acyl phosphate probe, SILAC LC-MS” value at DGKκ amounted to 15.0; on DGKθ it was 14.4; at DGKζ, 16.7. Also, the “free ATP competition with ATP acyl phosphate probe, SILAC LC-MS” value on FER [2] was 19.3.

What is called IC50 is the concentration needed to halve the response being measured. The low end stands for inhibition by little substance, the high end for a need for much substance. The compound `Fc1ccc(C(=C2CCNCC2)c2ccc(F)cc2)cc1` [RF001] gave an IC50 against DGKα of 223 µM.

The values above are taken from PMC5551460 (Cell chemical biology, 2017).
